In patent publication US20040266766A1, “Selective urokinase inhibitors” (Wilex AG, priority 2001, published 2004):
Where a name gives a salt, the structure may show the parent alone. Read-outs that look alike come from different tables or passages of the source. One block for each compound: values may come before it.

Legend:
rat prostate carcinoma = conditions: syngenic model for rat prostate carcinoma; cited from earlier work
mouse mammary carcinoma = conditions: cited from earlier work
[1] = tested on: rat breast adenocarcinoma cells; conditions: after i.v. inoculation of rat breast adenocarcinoma cells; cited from earlier work
mammary carcinoma BN-472 = test: Tumor spreading, tumor growth and metastasizing in a rat breast cancer model; assay type: in vivo, brown Norwegian rats; conditions: 0.3 mg/kg daily subcutaneously, 4 weeks
Experimental: 10-25 mm^3 of transplantable metastasising mammary carcinoma BN-472 breast cancer tumor fragments from donor rats were transplanted orthotopically under the mammary fat pad. (Day 0) into 6 to 8 weeks old female brown Norwegian rats. Subcutaneous treatment was started 5 days after tumor inoculation. Each group consisted of 18 animals. The treatment group received a daily dose of 0.3 mg/kg body weight subcutaneously. The treatment-was carried out over a period of 4 weeks.
The dimensions of the subcutaneous tumors and the weight of the animals were determined weekly. At the end of the treatment the animals were sacrificed and tumor weights, organ weights and the number of metastases in relevant tissues were determined.
The data were analyzed using the SigmaStat Vers.2.03 statistical package. Tumor sizes, tumor weights and the weights of the organs were checked with the Shapiro-Wilk W-test for normality of distribution (Royston P., Approximating the Shapiro-Wilk W-test for non-normality. Statistics and Computing 1992, 2:117-119). For each parameter the Shapiro-Wilk W-tests were performed on all data (e.g., tumor weights of all rats), and separately for each treatment group. If one of the P-values was <0.05 the variable was considered to be abnormally distributed and the Mann-Whitney U-test was used to test for significance levels of differences. The Mann-Whitney U-test was used to test for differences in weights of the axillary lymph nodes, intra peritoneal lymph nodes, tumor, and the number of lung foci. Primary and metastatic tumor data at the end of the treatment period were graphically represented using the Box-Whisker graphs, with the box showing the inter-quartile range of values, with a horizontal line at the median value. Whiskers represent the 5th and 95th percentile of values, and the individual values are indicated by dots. The unadjusted level for statistical significance was α=0.05. All tests were two-sided.

Thrombin = Thrombin (Homo sapiens, UniProt P00734); test: In vitro inhibition of thrombin (Ki according to Dixon); assay type: biochemical
Experimental: (§1) In order to determine the inhibitory activity, 200 μl Tris buffer (0.05 mol/l containing the inhibitor, 0.154 mol/l NaCl, pH 8.0), 25 μl substrate (Pefachrome uPA, Pefachrome PL or Pefabloc TH in H2O; Pentapharm Ltd, Basle, Switzerland) and 50 μl urokinase (Calbiochem-Novabiochem GmbH, Bad Soden, Germany) or another appropriate protease e.g. plasmin, thrombin or FXa are incubated for 10 minutes at 30° C. After ca. 30 minutes and 30 cycles the absorption is determined at 405 nm by means of a microplate reader (Mediators PHL, Aureon Biosystems, Vienna, Austria). The Ki values were determined according to Dixon by linear regression using a computer program.

PK = PK (Homo sapiens, UniProt P03952); test: In vitro inhibition of PK (Ki); assay type: biochemical; conditions: summary table
Sequence of PK (P03952 20-638): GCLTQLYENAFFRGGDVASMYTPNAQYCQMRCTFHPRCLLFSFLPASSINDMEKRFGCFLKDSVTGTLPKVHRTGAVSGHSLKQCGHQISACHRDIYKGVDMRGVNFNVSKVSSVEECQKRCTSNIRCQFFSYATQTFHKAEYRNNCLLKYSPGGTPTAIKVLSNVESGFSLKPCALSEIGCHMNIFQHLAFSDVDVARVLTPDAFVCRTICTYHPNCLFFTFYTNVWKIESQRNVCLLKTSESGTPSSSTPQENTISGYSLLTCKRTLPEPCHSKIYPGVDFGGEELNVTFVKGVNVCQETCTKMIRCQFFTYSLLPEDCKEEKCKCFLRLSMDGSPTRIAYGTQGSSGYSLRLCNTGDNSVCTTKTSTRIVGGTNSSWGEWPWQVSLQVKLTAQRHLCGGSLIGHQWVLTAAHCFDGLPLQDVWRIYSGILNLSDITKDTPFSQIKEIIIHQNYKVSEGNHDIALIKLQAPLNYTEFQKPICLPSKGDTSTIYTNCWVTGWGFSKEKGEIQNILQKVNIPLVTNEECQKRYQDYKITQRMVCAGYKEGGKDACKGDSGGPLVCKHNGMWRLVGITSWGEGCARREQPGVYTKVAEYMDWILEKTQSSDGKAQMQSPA
Experimental: as §1

FXa = FXa (Homo sapiens, UniProt P00742); test: In vitro inhibition of FXa (Ki according to Dixon); assay type: biochemical
Sequence of FXa (P00742 235-488 limits assumed): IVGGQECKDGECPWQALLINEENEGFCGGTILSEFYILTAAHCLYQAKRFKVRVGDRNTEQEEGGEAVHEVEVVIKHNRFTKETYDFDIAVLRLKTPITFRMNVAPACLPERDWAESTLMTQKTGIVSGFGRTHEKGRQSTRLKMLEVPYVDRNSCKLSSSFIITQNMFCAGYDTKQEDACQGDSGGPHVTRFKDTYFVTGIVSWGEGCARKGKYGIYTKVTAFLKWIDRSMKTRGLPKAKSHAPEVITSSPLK
Sequence of FXa (P00742 41-179 partner limits assumed): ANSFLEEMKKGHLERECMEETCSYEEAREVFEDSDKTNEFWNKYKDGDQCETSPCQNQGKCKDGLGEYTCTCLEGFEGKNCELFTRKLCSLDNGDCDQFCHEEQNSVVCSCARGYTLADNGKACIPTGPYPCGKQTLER
Experimental: as §1

urokinase (uPA) = biological target: T1, urokinase (uPA) (Homo sapiens, UniProt P00749); test: In vitro inhibition of urokinase (Ki according to Dixon, chromogenic substrate); assay type: biochemical
T1 construct: purchased Calbiochem-Novabiochem GmbH, Bad Soden, Germany
Summary of the method: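 Chromogenic read-out in 0.05 mol/l Tris, 0.154 mol/l NaCl, pH 8.0, with inhibitor, substrate (Pefachrome uPA, Pefachrome PL or Pefabloc TH) and protease, incubated 10 min at 30 °C. Absorbance at 405 nm was read after ca. 30 min (30 cycles). Ki was derived by Dixon linear regression.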

Plasmin = Plasmin (Homo sapiens, UniProt P00747); test: In vitro inhibition of plasmin (Ki according to Dixon); assay type: biochemical
Sequence of Plasmin (P00747 581-810 limits assumed, species assumed): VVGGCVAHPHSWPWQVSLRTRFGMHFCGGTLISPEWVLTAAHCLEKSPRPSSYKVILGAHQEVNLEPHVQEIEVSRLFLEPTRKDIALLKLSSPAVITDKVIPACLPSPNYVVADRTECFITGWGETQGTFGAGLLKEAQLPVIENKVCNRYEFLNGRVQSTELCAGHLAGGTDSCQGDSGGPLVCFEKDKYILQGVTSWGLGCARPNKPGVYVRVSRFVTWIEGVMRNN
Sequence of Plasmin (P00747 97-580 partner limits assumed, species assumed): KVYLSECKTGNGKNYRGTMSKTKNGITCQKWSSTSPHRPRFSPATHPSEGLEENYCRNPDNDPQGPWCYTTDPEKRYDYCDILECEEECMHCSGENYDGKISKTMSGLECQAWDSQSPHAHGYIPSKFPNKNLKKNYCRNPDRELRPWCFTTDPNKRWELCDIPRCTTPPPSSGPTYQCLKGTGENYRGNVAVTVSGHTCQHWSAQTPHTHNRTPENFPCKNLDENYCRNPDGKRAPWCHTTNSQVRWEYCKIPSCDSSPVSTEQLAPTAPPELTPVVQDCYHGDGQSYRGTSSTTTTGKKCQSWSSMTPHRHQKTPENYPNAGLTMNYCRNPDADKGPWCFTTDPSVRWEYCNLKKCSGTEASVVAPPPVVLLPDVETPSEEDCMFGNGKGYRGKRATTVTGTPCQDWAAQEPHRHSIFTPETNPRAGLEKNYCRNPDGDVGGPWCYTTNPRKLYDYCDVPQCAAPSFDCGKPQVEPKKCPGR
Experimental: as §1

Caco-2 cell monolayers = test: Caco-assay: transport across Caco-2 cell monolayers; assay type: in vitro ADME, human; conditions: for % amount in the basolateral compartment: 10 μg/ml apical, four hours
Experimental: Transport of the compounds WX-508, WXC-316, WXC-318, WXC-324, WXC-340, WX-532, WX-538, WX-550 and WX-582 across Caco-2 cell monolayers was investigated. In this experiment the bioavailability of the said compounds after oral administration was assessed.
Caco-2-cells (American Type Culture Collection, Rockville, Md., USA) were cultured in Dulbecco's modified Eagle medium (DMEM) (Life Technologies, Gibco BRL, UK) containing 10% vol/vol heat-denatured foetal calf serum (FCS), 1% vol/vol non-essential amino acids, 160 U/ml benzylpenicillin and 100 U/ml streptomycin (Sigma Chemical, St. Louis, Mo., USA). The cells are kept at 37° C. in an atmosphere comprising 95% air and 5% CO2 at 90% relative air humidity. The cells are cultured in […] culture flasks, the medium being replaced every second day and the cells are trypsinized once per week.
For the transport investigations the Caco-2 cells are cultured on porous polycarbonate filter membranes having a pore size of 0.4 μm and a surface of 4.7 cm^2 in clusters of 6 wells (Costar Transwell, Badhoevedorp, Netherlands). The cells are inoculated on each filter at an initial density of 10^4 cells/cm^2. These cells are kept at 37° C. in one of the atmospheres described above. The medium is replaced every second day for a period of three weeks.
On the day of the transport experiment the culture medium was replaced by the same volume of Hank's balanced saline solution (HBSS) buffered with 30 mM HEPES at pH 7.2 (transport medium) and the cells are allowed to equilibrate for 1 hour. Afterwards the apical medium is replaced by 1.5 ml of a solution containing one of the compounds in HBSS/HEPES (10 μg/ml). Cell monolayers are incubated for four hours. Samples of the apical and basolateral compartments are removed at the end of the experiments and used to quantitatively determine the transport of the respective compounds.
The transepithelial electric resistance (TEER) is measured before and after equilibration using a Milicell ERS meter which was connected to a pair of electrodes in order to ensure the integrity of the monolayers formed on the filters. TEER is also measured at the end of the experiments to ensure that the cell monolayer remains coherent.
Samples are taken from the apical and the basolateral side and analysed in a beta counter after adding a scintillation cocktail. All experiments were carried out three times.

[2] = Oral bioavailability and plasma kinetics in mice (serum concentration); assay type: in vivo, Balb/c mice; conditions: mouse; for concentration at 20 min / concentration at 40 min / concentration at 60 min: female, Balb/c, serum, po; for concentration at 20 min: sample at 20 minutes; for concentration at 40 min: sample at 40 minutes; for concentration at 60 min: sample at 60 minutes; for c in the serum 1st analysis: 10 mg/kg i.v.
uPA = uPA (Homo sapiens, UniProt P00749); conditions: background, literature; read-out: Ki, uPA (inhibition constant); cited from earlier work
[3] = tested on: DU145 tumors (a prostate adenocarcinoma cell line); conditions: SCID mice, orally 125 to 250 mg/kg/day; cited from earlier work
[4] = 30 mg/kg, 30 mg/kg oral, read-out: c in the serum 1st analysis
[5] = 30 mg/kg, 30 mg/kg oral, read-out: c in the serum 2nd analysis
[6] = 300 mg/kg, 300 mg/kg oral, read-out: c in the serum 1st analysis

Structure (SMILES): N=C(N)c1cc2c(I)cccc2s1 [B428, 4-iodo-benzo[b]-thiophene-2-carboxamidine]
- tumor growth and formation of metastases (rat prostate carcinoma): decrease in tumor growth and formation of metastases
- primary tumor growth (mouse mammary carcinoma; administered together with the anti-oestrogen Tamoxifen): further decrease of primary tumor growth
- tumor growth and formation of metastases (mouse mammary carcinoma; syngenic model for mouse mammary carcinoma): decrease in tumor growth and formation of metastases

Structure (SMILES): N=C(N)NC(=O)c1nc(Cl)c(N)nc1N [amiloride]
- formation of lung metastases [1]: prevents the formation of lung metastases

- Ki Thrombin (Thrombin): no inh. at 100 μM *)
- Ki Thrombin (Thrombin; summary table): no inh. at 100 μM *)
- Ki (PK): 216 µM
- Ki (FXa): 34 µM
- Ki (urokinase (uPA); list of test substances of Example 17, read-out: Ki human uPA): 0.01 µM
- Ki (urokinase (uPA); read-out: Ki uPA): 0.01 µM
- Ki (urokinase (uPA); summary table, read-out: Ki uPA): 0.01 µM
- Ki Plasmin (Plasmin): no inh. at 100 μM *)
- Ki Plasmin (Plasmin; summary table): no inh. at 100 μM *)
- % amount in the basolateral compartment (Caco-2 cell monolayers; first value column): 2.4%
- % amount in the basolateral compartment (Caco-2 cell monolayers; second value column): 0.2%
- % amount in the basolateral compartment (Caco-2 cell monolayers; third value column): 0.1%
- Caco-2 assay % basolateral (Caco-2 cell monolayers; first series, first value): 2.4%
- Caco-2 assay % basolateral (Caco-2 cell monolayers; first series, second value): 0.2%
- Caco-2 assay % basolateral (Caco-2 cell monolayers; first series, third value): 0.1%
- Caco-2 assay % basolateral (Caco-2 cell monolayers; second series, first value): 2.3%
- Caco-2 assay % basolateral (Caco-2 cell monolayers; second series, second value): 0.1%
- Caco-2 assay % basolateral (Caco-2 cell monolayers; second series, third value): 0.1%
- concentration at 20 min [2, 4]: 300 ng/mL
- concentration at 20 min [2, 5]: 500 ng/mL
- concentration at 40 min [2, 4]: 300 ng/mL
- concentration at 40 min [2, 5]: 800 ng/mL
- concentration at 60 min [2, 4]: 1400 ng/mL
- concentration at 60 min [2, 5]: 2300 ng/mL
- concentration at 20 min [2, 6]: 4500 ng/mL
- concentration at 40 min [2, 6]: 4900 ng/mL
- concentration at 60 min [2, 6]: 4300 ng/mL
- c in the serum 1st analysis ([2]; time of sample collection 0): 51.8 µg/mL
- c in the serum 1st analysis ([2]; time of sample collection 10): 5.3 µg/mL
- c in the serum 1st analysis ([2]; time of sample collection 30): 1.7 µg/mL
Structure (SMILES): N=C(N)Nc1ccc(CNC(=O)CNC(=O)C(CO)NS(=O)(=O)Cc2ccc(Cl)cc2)cc1 (stereo not drawn) [WX-C340, 4-Chlorobenzyl-sulfonyl-(D)-Ser-Gly-(4-guanidinobenzyl)amide hydrochloride]
- reduction of the axillary lymph node weights (mammary carcinoma BN-472; compared with the control group, P=0.006): 73%
- reduction in the number of lung foci (mammary carcinoma BN-472; compared with the control group, P≦0.001): 63%
- reduction of the median tumor weight (mammary carcinoma BN-472; P=0.141): 29%

Structure (SMILES): N=C(N)c1ccc(N)cc1 [p-Aminobenzamidine]
- Ki (uPA): 82 µM
- growth rate of DU145 tumors [3]: considerable decrease in the growth rate
- side-effects [3]: negligibly small
